Test results as given in patent US20220289708A1, “SUBSTITUTED N-PHENYL URACILS, SALTS THEREOF AND THEIR USE AS HERBICIDAL AGENTS” (Bayer Aktiengesellschaft, priority 2019, published 2022).

Key:
Assay type in all cases: in vivo
Avena fatua [1] = assay: Post-emergence herbicidal action; conditions: rated visually after about 3 weeks vs untreated controls
How it was run: (§1)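 Activity scored visually about 3 weeks post-spray against untreated plants, on a scale where 0% equals control and 100% equals dead plants. Compounds, as WP or EC with 0.5% additive in 600 l/ha water, were applied at 20 g/ha or less onto one-leaf-stage greenhouse plants sown 2–3 weeks earlier.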

Echinochloa crus-galli [2] = assay: Post-emergence herbicidal action; conditions: rated visually after about 3 weeks vs untreated controls
How it was run: as §1

Setaria viridis [3] = assay: Post-emergence herbicidal action; conditions: application rate 5 g/ha, rated visually after about 3 weeks vs untreated controls
How it was run: as §1

Abutilon theophrasti [4] = assay: Post-emergence herbicidal action; conditions: rated visually after about 3 weeks vs untreated controls
How it was run: as §1

Veronica persica [5] = assay: Post-emergence herbicidal action
How it was run: as §1

Polygonum convolvulus [6] = assay: Post-emergence herbicidal action; conditions: application rate 5 g/ha
How it was run: as §1

Digitaria sanguinalis [7] = assay: Post-emergence herbicidal action; conditions: rated visually after about 3 weeks vs untreated controls
How it was run: as §1

Viola tricolor [8] = assay: Post-emergence herbicidal action; conditions: application rate 5 g/ha
How it was run: as §1

Stellaria media = assay: Post-emergence herbicidal action; conditions: application rate 5 g/ha, rated visually after about 3 weeks vs untreated controls
How it was run: as §1

Hordeum murinum = assay: Post-emergence herbicidal action
How it was run: as §1

Matricaria inodora [9] = assay: Post-emergence herbicidal action; conditions: rated visually after about 3 weeks vs untreated controls
How it was run: as §1

Lolium rigidum [10] = assay: Post-emergence herbicidal action; conditions: rated visually after about 3 weeks vs untreated controls
How it was run: as §1

Amaranthus retroflexus [11] = assay: Post-emergence herbicidal action; conditions: rated visually after about 3 weeks vs untreated controls
How it was run: as §1

Pharbitis purpurea [12] = assay: Post-emergence herbicidal action; conditions: application rate 5 g/ha, rated visually after about 3 weeks vs untreated controls
How it was run: as §1

Alopecurus myosuroides [13] = assay: Post-emergence herbicidal action; conditions: rated visually after about 3 weeks vs untreated controls
How it was run: as §1

Oryza sativa = assay: Post-emergence crop plant compatibility; conditions: application rate 5 g/ha
Protocol: a. Post-Emergence Herbicidal Action and Crop Plant Compatibility
Seeds of monocotyledonous and dicotyledonous weeds and crop plants were placed in sandy loam in plastic or wood-fiber pots, covered with soil and cultivated in a greenhouse under controlled growth conditions. 2 to 3 weeks after sowing, the test plants were treated at the one-leaf stage. The compounds of the invention, formulated in the form of wettable powders (WP) or as emulsion concentrates (EC), were then sprayed onto the green parts of the plants as aqueous suspension or emulsion with addition of 0.5% additive at a water application rate of 600 l/ha (converted). After the test plants had been kept in the greenhouse under optimum growth conditions for about 3 weeks, the activity of the preparations was rated visually in comparison to untreated controls. For example, 100% activity=the plants have died, 0% activity=like control plants.
Tables A16 to A19 below show the crop plant compatibilities of selected compounds of the general formula (I) according to Tables I.1 to I.36 at an application rate corresponding to 5 g/ha or 20 g/ha, which were obtained in experiments according to the experimental procedure mentioned above. Here, the observed effects on selected crop plants are stated in comparison to the untreated controls (values in %).

Avena fatua [14] = assay: Pre-emergence herbicidal action; conditions: application rate 80 g/ha
Excerpt: (§2) B. Pre-Emergence Herbicidal Action and Crop Plant Compatibility Seeds of monocotyledonous and dicotyledonous weed plants and crop plants were placed in plastic or organic planting pots and covered with soil. The compounds of the invention, formulated in the form of wettable powders (WP) or as emulsion concentrates (EC), were then applied to the surface of the covering soil as aqueous suspension or emulsion with addition of 0.5% additive at a water application rate equivalent to 600 l/ha (converted). After the treatment, the pots were placed in a greenhouse and kept under good growth conditions for the test plants. After about 3 weeks, the effect of the preparations was scored visually in comparison with untreated controls as percentages. For example, 100% activity=the plants have died, 0% activity=like control plants. Tables B1 to B13 below show the effects of selected compounds of the general formula (I) according to Tables I.1 to I.36 on various harmful plants and at an application rate corresponding to 80 g/ha or less, which were obtained by the experimental procedure mentioned above.

Echinochloa crus-galli [15] = assay: Pre-emergence herbicidal action; conditions: application rate 20 g/ha
Excerpt: as §2

Setaria viridis [16] = assay: Pre-emergence herbicidal action; conditions: application rate 20 g/ha
Excerpt: as §2

Abutilon theophrasti [17] = assay: Pre-emergence herbicidal action; conditions: application rate 20 g/ha
Excerpt: as §2

Veronica persica [18] = assay: Pre-emergence herbicidal action; conditions: application rate 20 g/ha
Excerpt: as §2

Polygonum convolvulus [19] = assay: Pre-emergence herbicidal action; conditions: application rate 20 g/ha
Excerpt: as §2

Digitaria sanguinalis [20] = assay: Pre-emergence herbicidal action; conditions: application rate 20 g/ha
Excerpt: as §2

Viola tricolor [21] = assay: Pre-emergence herbicidal action; conditions: application rate 20 g/ha
Excerpt: as §2

Matricaria inodora [22] = assay: Pre-emergence herbicidal action; conditions: application rate 20 g/ha
Excerpt: as §2

Lolium rigidum [23] = assay: Pre-emergence herbicidal action; conditions: application rate 80 g/ha
Excerpt: as §2

Amaranthus retroflexus [24] = assay: Pre-emergence herbicidal action; conditions: application rate 20 g/ha
Excerpt: as §2

Pharbitis purpurea [25] = assay: Pre-emergence herbicidal action; conditions: application rate 20 g/ha
Excerpt: as §2

Alopecurus myosuroides [26] = assay: Pre-emergence herbicidal action; conditions: application rate 80 g/ha
Excerpt: as §2

| Oryza sativa (efficacy in %) (Oryza sativa) [%] | Structure (SMILES) | Echinochloa crus-galli (efficacy in %) (Echinochloa crus-galli [2]; application rate 5 g/ha) [%] | Setaria viridis (efficacy in %) (Setaria viridis [3]) [%] | Abutilon theophrasti (efficacy in %) (Abutilon theophrasti [4]; application rate 5 g/ha) [%] | Veronica persica (efficacy in %) (Veronica persica [5]; application rate 5 g/ha) [%] | Polygonum convolvulus (efficacy in %) (Polygonum convolvulus [6]) [%] | Digitaria sanguinalis (efficacy in %) (Digitaria sanguinalis [7]; application rate 5 g/ha) [%] | Viola tricolor (efficacy in %) (Viola tricolor [8]) [%] | Stellaria media (efficacy in %) (Stellaria media) [%] | Hordeum murinum (efficacy in %) (Hordeum murinum; application rate 20 g/ha) [%] | Matricaria inodora (efficacy in %) (Matricaria inodora [9]; application rate 5 g/ha) [%] | Amaranthus retroflexus (efficacy in %) (Amaranthus retroflexus [11]; application rate 5 g/ha) [%] | Pharbitis purpurea (efficacy in %) (Pharbitis purpurea [12]) [%] | Alopecurus myosuroides (efficacy in %) (Alopecurus myosuroides [13]; application rate 5 g/ha) [%] | Avena fatua (efficacy in %) (Avena fatua [1]; application rate 5 g/ha) [%] | Lolium rigidum (efficacy in %) (Lolium rigidum [10]; application rate 20 g/ha) [%] | further results |
| --- | --- | --- | --- | --- | --- | --- | --- | --- | --- | --- | --- | --- | --- | --- | --- | --- | --- |
|  | Cn1c(C(F)(F)F)cc(=O)n(-c2cc(Sc3cccnc3OCC(=O)OCC3CCCO3)c(Cl)cc2F)c1=O (stereo not drawn) [I.1-71] | 100 | 100 | 100 | 100 | 100 | 100 | 100 | 100 | 80 | 100 | 100 | 100 | 80 |  |  | Avena fatua (efficacy in %) (Avena fatua [1]; application rate 20 g/ha): 80%; Lolium rigidum (efficacy in %) (Lolium rigidum [10]; application rate 5 g/ha): 100% |
| 20 | Cn1c(C(F)(F)F)cc(=O)n(-c2cc(Sc3cccnc3SCC(=O)OC3COC3)c(Cl)cc2F)c1=O [I.10-115] |  | 100 | 100 |  | 100 |  | 100 | 100 | 80 | 90 | 100 | 100 |  |  |  | Echinochloa crus-galli (efficacy in %) (Echinochloa crus-galli [2]; application rate 20 g/ha): 100%; Veronica persica (efficacy in %) (Veronica persica [5]; application rate 20 g/ha): 100%; Digitaria sanguinalis (efficacy in %) (Digitaria sanguinalis [7]; application rate 20 g/ha): 100%; Alopecurus myosuroides (efficacy in %) (Alopecurus myosuroides [13]; application rate 20 g/ha): 80% |
| 20 | Cn1c(C(F)(F)F)cc(=O)n(-c2cc(Sc3cccnc3SCC(=O)OCC#N)c(Cl)cc2F)c1=O [I.10-176] | 100 | 100 |  |  | 100 |  | 100 | 100 | 80 |  |  | 90 | 80 |  |  | Abutilon theophrasti (efficacy in %) (Abutilon theophrasti [4]; application rate 20 g/ha): 100%; Veronica persica (efficacy in %) (Veronica persica [5]; application rate 20 g/ha): 80%; Digitaria sanguinalis (efficacy in %) (Digitaria sanguinalis [7]; application rate 20 g/ha): 100%; Matricaria inodora (efficacy in %) (Matricaria inodora [9]; application rate 20 g/ha): 100%; Amaranthus retroflexus (efficacy in %) (Amaranthus retroflexus [11]; application rate 20 g/ha): 100% |
|  | COCCOC(=O)COc1ncccc1Oc1cc(-n2c(=O)cc(C(F)(F)F)n(C)c2=O)c(F)cc1Cl [I.15-1] | 100 | 100 | 100 | 100 | 100 | 100 | 100 | 100 | 100 | 100 | 100 | 100 | 80 | 90 | 100 |  |
|  | COCCOCCOC(=O)COc1ncccc1Oc1cc(-n2c(=O)cc(C(F)(F)F)n(C)c2=O)c(F)cc1Cl [I.15-23] | 100 | 100 | 100 | 100 | 100 | 100 | 100 | 100 |  | 90 | 100 | 100 |  | 80 |  | Hordeum murinum (efficacy in %) (Hordeum murinum; application rate 5 g/ha): 80%; Lolium rigidum (efficacy in %) (Lolium rigidum [10]; application rate 5 g/ha): 80%; Alopecurus myosuroides (efficacy in %) (Alopecurus myosuroides [13]; application rate 20 g/ha): 100% |
|  | Cn1c(C(F)(F)F)cc(=O)n(-c2cc(Oc3cccnc3OCC(=O)OCC3CCCO3)c(Cl)cc2F)c1=O (stereo not drawn) [I.15-71] | 100 | 100 | 100 | 100 | 100 | 100 | 100 | 100 | 100 |  | 100 | 100 | 90 |  | 100 | Avena fatua (efficacy in %) (Avena fatua [1]; application rate 20 g/ha): 80%; Matricaria inodora (efficacy in %) (Matricaria inodora [9]; application rate 20 g/ha): 100% |
|  | Cn1c(C(F)(F)F)cc(=O)n(-c2cc(Oc3cccnc3OCC(=O)OCC3CCOC3)c(Cl)cc2F)c1=O (stereo not drawn) [I.15-72, Tetrahydrofuran-3-ylmethyl [(3-{2-chloro-4-fluoro-5-[3-methyl-2,6-dioxo-4-(trifluoromethyl)-3,6-dihydropyrimidin-1(2H)-yl]phenoxy}pyridin-2-yl)oxy]acetate] | 100 | 100 | 100 | 100 | 100 | 100 | 100 | 100 |  | 90 | 100 | 100 | 90 | 80 | 100 | Hordeum murinum (efficacy in %) (Hordeum murinum; application rate 5 g/ha): 90% |
| 0 | Cn1c(C(F)(F)F)cc(=O)n(-c2cc(Oc3cccnc3OCC(=O)OCc3ccncc3)c(Cl)cc2F)c1=O [I.15-288] | 100 |  | 100 | 100 |  |  |  |  |  | 90 | 100 | 100 |  |  |  | Avena fatua (efficacy in %) (Avena fatua [14]): 100%; Echinochloa crus-galli (efficacy in %) (Echinochloa crus-galli [15]): 80%; Setaria viridis (efficacy in %) (Setaria viridis [16]): 100%; Abutilon theophrasti (efficacy in %) (Abutilon theophrasti [17]): 100%; Veronica persica (efficacy in %) (Veronica persica [18]): 100%; Polygonum convolvulus (efficacy in %) (Polygonum convolvulus [19]): 100%; Digitaria sanguinalis (efficacy in %) (Digitaria sanguinalis [20]): 100%; Viola tricolor (efficacy in %) (Viola tricolor [21]): 100%; Matricaria inodora (efficacy in %) (Matricaria inodora [22]): 100%; Lolium rigidum (efficacy in %) (Lolium rigidum [23]): 100%; Amaranthus retroflexus (efficacy in %) (Amaranthus retroflexus [24]): 100%; Pharbitis purpurea (efficacy in %) (Pharbitis purpurea [25]): 100%; Alopecurus myosuroides (efficacy in %) (Alopecurus myosuroides [26]): 100% |
